Patent publication US20130231305A1, “Method of Modulating Protein 14-3-3 Functionality By Facilitating or Inhibiting Phosphorylation” (Medvet Science Pty. Ltd., priority 2010, published 2013)
Changes are numbered by the printed parent chain.

Tests used:
14-3-3 isoforms = test: Phosphorylation of recombinant 14-3-3 isoforms by PKA catalytic subunit; type: biochemical; settings: 50 μM in 0.1% ethanol
Method: FIG. 3 is an image depicting that sphingosine is required for the phosphorylation of multiple 14-3-3 isoforms in the third helix. (A) Primary sequence alignment of 14-3-3 isoforms in the third helix showing conservation of a Ser phosphorylation site (shown in bold). Asterisks indicate identical amino acids. (B) Recombinant 14-3-3 isoforms were incubated with PKA catalytic subunit in the presence of 50 μM sphingosine, dimethyl-sphingosine (DMS) or FTY 720 (FTY) delivered in 0.1% ethanol (EtOH). Phosphorylated 14-3-3s were detected by autoradiography. Gels were coomassie stained to show equal loading of 14-3-3 substrate.
Substrate 14-3-3 (either 0.5 μg of purified recombinant 14-3-3, a […] of fractions from gel filtration or immunoprecipitates from 14-3-3ζ-Myc transfected COS cells) were added to reaction mixture comprising 0.2 Units of the PKA catalytic subunit, in the presences or absence of sphingolipid (delivered in 0.1% v/v ethanol) in PICA reaction buffer (20 mM MOPS, pH 7.4, 20 mM β-glycerol phosphate, 4 mM EGTA, 1 mM Na3VO4, 60 mM MgCl2, 1 mM DTT, 500 μM ATP, 2.4 μCi [^32P]γ-ATP). Reactions were incubated at 37° C. for 15 minutes. After incubation, reactions were separated on 12.5% SDS-PAGE, coomassie stained and 14-3-3 phosphorylation analysed by autoradiography.

Jurkat cells = test: Jurkat cell apoptosis (TMRE staining, NucView caspase activity); type: cell-based; settings: 2 μM
Text: (A) Immunoblotting of lysates from either parental Jurkat cells (Jurkat) or cells transduced with lentivirus encoding either wild type (Wt) or S58A 14-3-3ζ-Myc with either an anti-14-3-3ζ specific antibody (upper panel) or an anti-pan 14-3-3 antibody (middle panel) to compare the expression level of transduced protein. Myc immunoprecipitates were also immunoblotted with an anti-phospho 14-3-3 binding site antibody (lower panel) to detect proteins associated with 14-3-3ζ-Myc. Endogenous 14-3-3 is indicated by an open arrow and exogenous 14-3-3ζ-Myc with a closed arrow. (B) Lysates from either wild type (Wt) or S58A 14-3-3ζ-Myc expressing Jutkat cells were subjected to in vitro PKA phosphorylation in the presence (+) or absence (−) of […] and the samples immunoblotted after SDS-PAGE separation With either anti-Myc antibody (upper panel), anti-14-3-3ζ antibody (middle panel) or anti-phospho Ser58 14-3-3ζ antibody (lower panel). (C) Serum-starved Jurkat cells were treated with 2 μM FTY720 for 4 h prior to staining with TMRE and NucView™. Forward- versus side-scatter plots (FS versus SS) show the viable cell populations for FTY720 and EtOH (vehicle) treated cells which are analysed in the lower histograms for caspase activity (NucView™) versus ΔΨM (TMRE). (D and E) Jurkat cell lines expressing either wild type or S58A 14-3-3ζ-Myc by lentiviral transduction were serum-starved for 2 h and treated with either 0.1% ethanol vehicle alone (EtOH), 2 μM dimethyl-sphingosine (DMS), or 2 μM FTY720. Cells were analysed by TMRE staining at 4 h (D) or at the time points indicated (E). (D) Representative analyses of TMRE staining with forward- versus side-scatter plots inset to show the similarity in cell populations. (E) Graphical representation of TMRE analysis over time with open symbols representing vehicle (0.1% EtOH) treated cells and closed symbols representing FTY720 treated cells. […]
FIG. 11. […] Effect of TMAs on Jurkat cells after 16 hours incubation assessed by ΔΨM (TMRE) and caspase 3 activity (NucView™) analysis. […] Forward-side-scatter histograms showing cell viability are inset and caspase 3 activity as assessed by NucView™ analysis of viable cells shown. E. Examples of TMA-derivatives of FTY720 that will be analysed for effects on 14-3-3 dimer stability and apoptosis.
Having confirmed appropriate expression and behaviour of Myc-tagged wild type and S58A 14-3-3ζ in the Jurkat lines, these cells were utilised in functional studies to determine the effect of S58A 14-3-3ζ expression on cell survival in response to sphingosine analogues. […] Intriguingly, Jurkat cells expressing S58A 14-3-3ζ-Myc consistently underwent commitment to apoptosis (as detected by the loss of TMRE staining) more slowly than those expressing wild type 14-3-3ζ-Myc (FIG. 8D).

14-3-3ζ = molecular target: T1, 14-3-3ζ (Homo sapiens, UniProt P63104); test: 14-3-3 phosphorylation by PKA catalytic subunit (autoradiography); type: biochemical; settings: increasing concentrations of FTY720, FIG. 9C
T1 construct: made in house
T1 sequence (P63104 1-245): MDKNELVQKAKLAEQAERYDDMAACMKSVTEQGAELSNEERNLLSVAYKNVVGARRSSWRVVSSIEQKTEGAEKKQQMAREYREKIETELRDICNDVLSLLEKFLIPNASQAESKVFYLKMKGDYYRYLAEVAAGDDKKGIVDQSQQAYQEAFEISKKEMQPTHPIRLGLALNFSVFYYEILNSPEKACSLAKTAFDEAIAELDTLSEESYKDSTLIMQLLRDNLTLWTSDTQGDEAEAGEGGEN

14-3-3ζ D20N mutant = molecular target: T2, 14-3-3ζ D20N mutant (Homo sapiens, UniProt P63104, D20N); test: Phosphorylation of D20N mutant 14-3-3ζ by PKA catalytic subunit with FTY720; type: biochemical; settings: increasing concentrations of FTY720, FIG. 9C
T2 construct: made in house
T2 sequence (P63104 1-245 D20N): T1 sequence (P63104 1-245) with D20N
Text: FIG. 9 A depicts a side view of 14-3-3ζ in space filling representation indicating the orientation of view B. The monomer units (in green and orange) and interacting phospho-peptides, (in cyan) bound in the dual amphipathic grooves are shown. B. Bottom-up view of 14-3-3ζ with the location of S58 phosphorylation site (indicated by arrows and asterisk) and key surface acidic (in yellow) and basic (in blue) residues shown. C. In vitro phosphorylation of 14-3-3ζ wild type and mutants as indicated by catalytic PKA subunit in the presence of increasing concentrations of FTY720. […] D. Mutant 14-3-3 (as indicated) was analysed by native-PAGE and Coomassie staining. The arrow indicates the migration of dimeric 14-3-3 protein. E. A schematic representation of a 14-3-3 dimer showing the buried S58 phosphorylation site in pink, D20, the residue proposed to interact with sphingolipid in yellow and the predicted salt bridge interactions involved in dimerisation. F. & G. In silico docking of FTY720 (shown in cyan in F.) and sphingosine (in pink in G.) in 14-3-3ζ dimer interface.
The dimer interface of 14-3-3 proteins lies at the bottom of the phospho-serine binding groove and comprises a central hole of around 10 Å in diameter in which the Ser58 phosphorylation site is positioned (FIG. 9B, indicated by *). […]

[1] = 4 h, serum-starved Jurkat cells

With CCCCCCCCc1ccc(CCC(N)(CO)CO)cc1 [FTY720] the “phosphorylation of 14-3-3 isoforms by PKA catalytic subunit” value (14-3-3 isoforms) was “behaved similarly to sphingosine and DMS in modulating 14-3-3 for phosphorylation”, the “caspase-3 activity (NucView)” value (Jurkat cells; [1]) was “activation of caspase-3” and the “commitment to apoptosis (loss in TMRE staining)” value (Jurkat cells; [1]) was “rapid commitment to apoptosis”. For the same compound, the “commitment to apoptosis in S58A versus wild type 14-3-3ζ-Myc expressing cells (TMRE)” value (Jurkat cells; Jurkat cells expressing S58A 14-3-3ζ-Myc) was “delayed mitochondrial permeability transition”, the “phosphorylatability of wild-type 14-3-3ζ by PKA catalytic subunit” value (14-3-3ζ) was “increasing phosphorylatability” and the “phosphorylatability of D20N 14-3-3ζ by PKA catalytic subunit” value (14-3-3ζ D20N mutant) was “only weakly phosphorylatable”.
